Data on one compound can be found in patent US20200405697A1, “Antitumor Agent” (Taiho Pharmaceutical Co., Ltd, priority 2017, published 2020).

SMILES strings stand for the structures.

Assay [1] concerns HCT116 (Human large intestine cancer cell line). Put plainly: Effect of combination of sulfonamide compound and other antitumor agent (CellTiter-Glo, combination index): HCT116. It counts as cell-based.
Protocol: Each cell line was seeded at 90 L/well to a 96-well culture plate (Thermo Fisher Scientific, Inc.) according to the above tables. The cell-seeded plate was cultured in an incubator set to 37° C. and 500 CO2. On the day following seeding, varying concentrations of the sulfonamide compound and the other antitumor agent were added in combination to the cells. […] The serial dilutions of each compound, or DW was added at 5μL/well to the plate such that each compound and DW, or the sulfonamide compound and the other antitumor agent were combined. […] The plate after the addition was cultured at 37° C. for 3 days under 5% CO2 conditions.
Three days later, CellTiter-Glo(R) 2.0 Reagent (Promega Corporation) was added at 100 μL/well, and the amount of luminescence was measured using a plate reader EnSpire(R) Multimode Plate Reader (PerkinElmer Co., Ltd.).
An average value from 3 wells was calculated as to each drug condition from the obtained data, and cell survival rate normalized against control wells supplemented with the vehicle (DW) was calculated. A Fa (fractional inhibition) value was calculated by subtracting the cell survival rate from 1.
The target of assay [2] is T1, human RNR (histidine tagged human M1 and human M2 proteins) (Homo sapiens, UniProt P23921).
T1 construct: made in house; host or cells: Escherichia coli
T1 sequence (P23921 1-792): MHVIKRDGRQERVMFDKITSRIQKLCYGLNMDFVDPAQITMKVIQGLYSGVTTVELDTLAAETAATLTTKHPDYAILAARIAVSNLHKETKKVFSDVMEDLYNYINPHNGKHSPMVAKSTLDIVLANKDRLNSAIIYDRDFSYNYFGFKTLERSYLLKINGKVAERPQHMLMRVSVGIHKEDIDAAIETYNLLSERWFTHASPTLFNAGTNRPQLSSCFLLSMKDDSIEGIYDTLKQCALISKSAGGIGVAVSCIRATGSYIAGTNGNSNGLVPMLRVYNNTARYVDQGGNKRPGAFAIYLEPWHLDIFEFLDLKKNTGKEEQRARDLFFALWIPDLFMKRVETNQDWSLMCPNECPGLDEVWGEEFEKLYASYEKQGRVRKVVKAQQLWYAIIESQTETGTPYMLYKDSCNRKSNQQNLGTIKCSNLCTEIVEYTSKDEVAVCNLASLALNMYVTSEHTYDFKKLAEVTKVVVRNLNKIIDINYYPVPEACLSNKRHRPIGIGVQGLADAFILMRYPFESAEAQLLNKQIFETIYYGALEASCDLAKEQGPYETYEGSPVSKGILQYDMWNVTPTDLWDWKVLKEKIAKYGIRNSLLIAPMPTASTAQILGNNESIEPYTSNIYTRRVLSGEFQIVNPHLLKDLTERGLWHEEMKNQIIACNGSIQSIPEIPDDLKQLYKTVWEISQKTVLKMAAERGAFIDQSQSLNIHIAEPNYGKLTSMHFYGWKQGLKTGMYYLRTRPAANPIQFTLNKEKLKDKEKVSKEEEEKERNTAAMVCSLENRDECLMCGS
The assay can be described thus: Human RNR inhibition effect (dCDP formation from CDP). The conditions noted are these: 10 μM CDP, 37° C. for 30 minutes, read-out: RNR inhibitory activity IC50. Type of assay: biochemical. In short, it runs like this:
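His-tagged human M1 (isoform 1) and N-terminal 59-aa-truncated M2 (isoform 2), E. coli-expressed, Ni-purified, preincubated 20 min with compound (1% DMSO). Reaction with 10 μM CDP, 2 mM ATP, 0.24 mM NADPH, 6 mM DTT, 4 mM Mg acetate, 100 mM KCl, 50 mM HEPES pH 7.2, 30 min at 37° C. dCDP formed quantified by reverse-phase HPLC after heat stop.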

Where [3] appears, read: Example Compound 1 341 nM + Prexasertib 7.14 nM, molar ratio 1:0.02093.
Where [4] appears, read: Example Compound 1 512 nM + Prexasertib 10.7 nM, molar ratio 1:0.02093.
Where [5] appears, read: Example Compound 1 768 nM + AZD6738 508 nM, molar ratio 1:0.6621.
Setting [6] is: Example Compound 1 768 nM + Prexasertib 16.1 nM, molar ratio 1:0.02093.
Setting [7] is: Example Compound 1 1150 nM + AZD6738 761 nM, molar ratio 1:0.6621.

Consider `Cc1ccc(F)c([C@@H](C)[C@H](NS(=O)(=O)c2ccc(Br)cc2C(N)=O)c2n[nH]c(=O)o2)c1C` [Example 1, 5-bromo-2-(N-((1 S,2R)-2-(6-fluoro-2,3-dimethylphenyl)-1-(5-oxo-4,5-dihydro-1,3,4-oxadiazol-2-yl)propyl)sulfamoyl)benzamide], for which the CI value in assay [1] (setting [3]) came out at 0.451; in assay [1] (setting [4]), 0.243; in assay [1] (setting [5]), 0.264; in assay [1] (setting [6]), 0.197; in assay [1] (setting [7]) it was 0.218. The Fa value amounted to 0.6993 in assay [1] (setting [3]); 0.9038 in assay [1] (setting [4]); 0.8782 in assay [1] (setting [5]); 0.9579 in assay [1] (setting [6]); 0.9579 in assay [1] (setting [7]). In assay [2], the IC50 was 60 nM.
